From PMC11336974 (2024) come the findings set out here.

Each structure is given as a SMILES string.

Assay [1] has as its system miR-193a-3p (RNA, miRNA) AACUGGCCUACAAAGUCCCAGU
The assay can be described thus: ITC. Conditions: 190 mM NaCl; 20 mM HEPES pH 7.2, 1 mM EDTA, 37.5 µg/ml BSA, 0.02% Tween-20; apparent.

For assay [2], the system named is mutated miR-193a-3p (miR-193a-mut) (RNA, miRNA) AACUUCCUACAAAGUCCCAGU
The assay can be described thus: ITC. The conditions noted are these: 190 mM NaCl; 20 mM HEPES pH 7.2, 1 mM EDTA, BSA, Tween-20; 200 µM Trp titrant.

Assay [3] has as its system miR-193a-3p (RNA, miRNA) AACUGGCCUACAAAGUCCCAGU
The assay can be described thus: CD spectra. The conditions noted are these: 190 mM NaCl; 20 mM HEPES pH 7.2, 1 mM EDTA, BSA, Tween-20; 100 nM RNA, 200 µM Trp.

Assay [4] concerns mutated miR-193a-3p (miR-193a-mut) (RNA, miRNA) AACUUCCUACAAAGUCCCAGU
The assay is described as follows: CD spectra. The conditions noted are these: 190 mM NaCl; 20 mM HEPES pH 7.2, 1 mM EDTA, BSA, Tween-20; 200 µM Trp.

In assay [5] the test system is miR-193a-5p (RNA, miRNA) UGGGUCUUUGCGGGCAAGAUGA
The assay can be described thus: CD spectra. Conditions: 190 mM NaCl; 20 mM HEPES pH 7.2, 1 mM EDTA, BSA, Tween-20; 200 µM Trp.

The test system of assay [6] is biotinylated miR-193a-3p (RNA, miRNA) AACUGGCCUACAAAGUCCCAGU
The assay can be described thus: SPR (OpenSPR). The conditions noted are these: 190 mM NaCl; 10 mM HEPES, 1 mM EDTA, 0.02% Tween-20; Trp 2, 20, 200 µM.

In the case of `N[C@@H](Cc1c[nH]c2ccccc12)C(=O)O`, the Kd in assay [1] is 5.3 µM. Also, the binding entry was “no” in assay [2]; “yes” in assay [3]; “no” in assay [4]; “no” in assay [5]; “yes” in assay [6].
